pIC50, pKi: −log10 of the molar value.
Key:
[1] = biological target: Tyrosine-protein kinase Lck (Homo sapiens, UniProt P06239); test: DRUGMATRIX: Protein Tyrosine Kinase, LCK enzyme inhibition (substrate: Poly(Glu:Tyr)); assay type: cell-based, Insect cells; conditions: insect cells; Not Active = under 50% inhibition at 10 µM
[2] = biological target: T1, Polyunsaturated fatty acid lipoxygenase ALOX15 (Oryctolagus cuniculus, UniProt P12530); test: biochemical; assay type: tissue-based, Reticulocytes; conditions: for IC50: reticulocytes;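 on all read-outs here: inhibition of 15-lipoxygenase enzyme activity measured with linoleic acid as the substrate; in other assays of this panel Not Active means under 50% inhibition at 10 µM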
T1 sequence (P12530 whole entry): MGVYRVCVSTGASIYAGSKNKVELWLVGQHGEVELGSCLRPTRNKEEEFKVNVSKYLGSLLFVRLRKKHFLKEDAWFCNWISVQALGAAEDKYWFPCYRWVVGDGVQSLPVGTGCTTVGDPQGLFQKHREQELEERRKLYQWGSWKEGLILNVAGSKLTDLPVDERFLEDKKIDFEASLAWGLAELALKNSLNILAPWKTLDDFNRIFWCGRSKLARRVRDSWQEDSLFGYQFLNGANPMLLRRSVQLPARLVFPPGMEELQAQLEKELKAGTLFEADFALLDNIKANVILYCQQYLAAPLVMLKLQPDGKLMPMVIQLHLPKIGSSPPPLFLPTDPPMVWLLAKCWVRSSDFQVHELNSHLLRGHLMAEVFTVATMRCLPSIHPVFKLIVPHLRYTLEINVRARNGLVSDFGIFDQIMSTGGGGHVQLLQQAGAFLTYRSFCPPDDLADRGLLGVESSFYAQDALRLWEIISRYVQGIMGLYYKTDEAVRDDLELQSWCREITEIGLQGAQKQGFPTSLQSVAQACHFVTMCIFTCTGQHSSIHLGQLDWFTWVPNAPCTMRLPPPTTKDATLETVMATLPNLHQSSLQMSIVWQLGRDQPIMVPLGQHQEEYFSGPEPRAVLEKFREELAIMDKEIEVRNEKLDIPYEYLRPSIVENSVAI

[3] = biological target: Mu-type opioid receptor (Homo sapiens, UniProt P35372); test: DRUGMATRIX: Opiate mu (OP3, MOP) radioligand binding (ligand: [3H] Diprenorphine); assay type: cell membranes, CHO-K1, Membrane; conditions: Not Active = under 50% inhibition at 10 µM; for IC50: cho-k1
Mu-type opioid receptor, sequence (P35372 whole entry): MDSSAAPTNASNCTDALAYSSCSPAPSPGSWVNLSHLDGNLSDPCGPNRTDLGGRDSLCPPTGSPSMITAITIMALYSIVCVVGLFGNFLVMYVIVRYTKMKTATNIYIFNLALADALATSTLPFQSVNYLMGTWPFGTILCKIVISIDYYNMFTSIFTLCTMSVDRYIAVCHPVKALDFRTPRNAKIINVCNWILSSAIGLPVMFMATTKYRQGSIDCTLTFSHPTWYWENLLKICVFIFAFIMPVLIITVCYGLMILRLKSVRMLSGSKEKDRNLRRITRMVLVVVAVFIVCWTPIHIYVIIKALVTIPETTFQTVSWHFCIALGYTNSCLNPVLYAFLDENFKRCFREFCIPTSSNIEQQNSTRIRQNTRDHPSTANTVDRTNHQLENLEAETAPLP

[4] = biological target: Cytochrome P450 2C19 (Homo sapiens, UniProt P33261); conditions: bti-tn-5b1-4; further: in other assays of this panel Not Active means under 50% inhibition at 10 µM
Cytochrome P450 2C19, sequence (P33261 whole entry): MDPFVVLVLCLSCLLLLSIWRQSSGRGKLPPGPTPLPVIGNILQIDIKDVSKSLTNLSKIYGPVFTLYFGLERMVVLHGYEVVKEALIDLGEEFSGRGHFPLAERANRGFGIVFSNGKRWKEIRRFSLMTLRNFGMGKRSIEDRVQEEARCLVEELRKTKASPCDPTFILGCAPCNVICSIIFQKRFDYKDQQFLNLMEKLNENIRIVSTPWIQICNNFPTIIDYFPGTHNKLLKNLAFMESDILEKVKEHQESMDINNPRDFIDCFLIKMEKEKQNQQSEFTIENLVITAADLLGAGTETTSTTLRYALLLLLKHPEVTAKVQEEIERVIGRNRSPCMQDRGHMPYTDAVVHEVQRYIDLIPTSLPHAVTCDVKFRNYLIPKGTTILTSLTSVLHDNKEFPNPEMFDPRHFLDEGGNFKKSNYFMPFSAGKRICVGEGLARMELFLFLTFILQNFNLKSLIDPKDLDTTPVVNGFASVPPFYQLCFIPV

[5] = biological target: T2, Nitric oxide synthase, inducible (Mus musculus, UniProt P29477); parameters: species or system Escherichia coli;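 further: inhibition of iNOS enzyme activity measured with L-arginine as substrate; in other assays of this panel Not Active means under 50% inhibition at 10 µM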
T2 sequence (P29477 whole entry): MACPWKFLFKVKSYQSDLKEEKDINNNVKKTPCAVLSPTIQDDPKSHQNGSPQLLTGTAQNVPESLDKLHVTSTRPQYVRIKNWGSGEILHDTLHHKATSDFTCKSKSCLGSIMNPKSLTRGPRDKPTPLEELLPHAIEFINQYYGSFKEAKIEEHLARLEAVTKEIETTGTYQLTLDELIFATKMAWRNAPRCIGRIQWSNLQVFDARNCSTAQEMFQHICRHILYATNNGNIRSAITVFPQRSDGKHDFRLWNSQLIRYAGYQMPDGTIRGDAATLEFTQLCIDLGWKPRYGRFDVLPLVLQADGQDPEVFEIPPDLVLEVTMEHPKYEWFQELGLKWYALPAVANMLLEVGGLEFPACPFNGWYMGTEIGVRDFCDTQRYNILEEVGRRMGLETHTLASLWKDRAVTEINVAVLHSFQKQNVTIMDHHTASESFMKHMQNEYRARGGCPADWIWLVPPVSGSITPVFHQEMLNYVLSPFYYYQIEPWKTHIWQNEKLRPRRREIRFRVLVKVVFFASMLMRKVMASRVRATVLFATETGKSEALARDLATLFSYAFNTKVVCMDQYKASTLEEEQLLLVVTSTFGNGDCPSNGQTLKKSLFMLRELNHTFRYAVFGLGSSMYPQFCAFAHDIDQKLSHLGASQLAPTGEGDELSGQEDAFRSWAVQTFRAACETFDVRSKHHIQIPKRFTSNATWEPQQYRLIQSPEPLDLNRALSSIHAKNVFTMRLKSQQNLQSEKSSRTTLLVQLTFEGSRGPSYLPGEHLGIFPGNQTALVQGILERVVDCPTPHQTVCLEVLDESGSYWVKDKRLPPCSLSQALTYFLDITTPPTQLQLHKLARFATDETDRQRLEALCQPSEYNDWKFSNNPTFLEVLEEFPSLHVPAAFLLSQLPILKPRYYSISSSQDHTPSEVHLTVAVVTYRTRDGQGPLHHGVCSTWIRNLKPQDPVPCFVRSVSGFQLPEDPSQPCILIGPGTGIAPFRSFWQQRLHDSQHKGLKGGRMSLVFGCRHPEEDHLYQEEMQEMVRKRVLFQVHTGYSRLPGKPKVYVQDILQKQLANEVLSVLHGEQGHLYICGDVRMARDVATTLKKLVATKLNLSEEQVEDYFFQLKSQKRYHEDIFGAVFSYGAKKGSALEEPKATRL

[6] = biological target: T3, Cytochrome P450 1A2 (Homo sapiens, UniProt P05177); conditions: bti-tn-5b1-4; further: in other assays of this panel Not Active means under 50% inhibition at 10 µM
T3 sequence (P05177 whole entry): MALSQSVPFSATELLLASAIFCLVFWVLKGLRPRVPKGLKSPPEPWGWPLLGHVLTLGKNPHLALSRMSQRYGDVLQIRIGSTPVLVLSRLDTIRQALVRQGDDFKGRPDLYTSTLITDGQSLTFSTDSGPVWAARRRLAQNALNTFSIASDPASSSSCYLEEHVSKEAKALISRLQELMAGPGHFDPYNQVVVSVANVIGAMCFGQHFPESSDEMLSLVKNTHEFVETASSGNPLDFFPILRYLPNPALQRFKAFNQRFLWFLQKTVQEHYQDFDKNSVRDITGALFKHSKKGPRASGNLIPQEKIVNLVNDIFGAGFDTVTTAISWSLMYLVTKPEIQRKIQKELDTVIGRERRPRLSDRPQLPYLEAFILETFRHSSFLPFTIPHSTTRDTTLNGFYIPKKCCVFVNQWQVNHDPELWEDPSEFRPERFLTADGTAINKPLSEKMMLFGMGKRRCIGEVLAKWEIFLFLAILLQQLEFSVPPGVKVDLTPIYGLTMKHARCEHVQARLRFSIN

Tyrosine-protein kinase Lck, sequence (P06239 whole entry): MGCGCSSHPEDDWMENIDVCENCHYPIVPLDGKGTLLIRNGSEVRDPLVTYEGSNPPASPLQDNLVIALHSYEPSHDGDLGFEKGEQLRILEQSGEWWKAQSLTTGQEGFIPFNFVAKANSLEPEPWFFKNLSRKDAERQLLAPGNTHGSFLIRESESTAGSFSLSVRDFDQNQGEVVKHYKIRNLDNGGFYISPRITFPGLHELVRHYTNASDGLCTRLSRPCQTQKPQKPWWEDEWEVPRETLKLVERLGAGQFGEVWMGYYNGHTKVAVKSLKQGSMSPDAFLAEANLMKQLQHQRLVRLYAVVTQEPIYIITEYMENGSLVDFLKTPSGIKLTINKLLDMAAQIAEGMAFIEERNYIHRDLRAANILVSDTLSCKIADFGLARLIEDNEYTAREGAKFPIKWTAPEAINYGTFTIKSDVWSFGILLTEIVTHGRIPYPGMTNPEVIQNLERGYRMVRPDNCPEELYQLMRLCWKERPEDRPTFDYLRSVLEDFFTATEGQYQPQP

| SMILES | IC50 [1] | IC50 [2] | IC50 [3] | IC50 [4] | Ki [4] | IC50 [5] | IC50 [6] | Ki [6] | pKi [3] | pIC50 ([3]; read-out: IC50) | pIC50 ([2]; read-out: IC50) |
| --- | --- | --- | --- | --- | --- | --- | --- | --- | --- | --- | --- |
| CO/N=C(\C(=O)N[C@@H]1C(=O)N2C(C(=O)O)=C(COC(C)=O)CS[C@H]12)c1csc(N)n1 [CEFOTAXIME] | Not Active | Not Active | Not Active | Not Active | Not Active | Not Active | Not Active | Not Active |  |  |  |
| CNC1=Nc2ccc(Cl)cc2C(c2ccccc2)=[N+]([O-])C1 [CHLORDIAZEPOXIDE] | Not Active | Not Active | Not Active | Not Active | Not Active | Not Active | Not Active | Not Active |  |  |  |
| Cc1cc(O)cc(C)c1Cl [CHLOROXYLENOL] | Not Active | Not Active | Not Active | Not Active | Not Active | Not Active | Not Active | Not Active |  |  |  |
| CCCNC(=O)NS(=O)(=O)c1ccc(Cl)cc1 [CHLORPROPAMIDE] | Not Active | Not Active | Not Active | Not Active | Not Active | Not Active | Not Active | Not Active |  |  |  |
| NS(=O)(=O)c1cc(C2(O)NC(=O)c3ccccc32)ccc1Cl (centres undefined) [CHLORTHALIDONE] | Not Active | Not Active | Not Active | Not Active | Not Active | Not Active | Not Active | Not Active |  |  |  |
| O=C(O)CC(O)(CC(=O)O)C(=O)O [CITRIC ACID] | Not Active | Not Active | Not Active | Not Active | Not Active | Not Active | Not Active | Not Active |  |  |  |
| CC(C)NCC(O)c1ccccc1Cl (centres undefined) [CLORPRENALINE] | Not Active | Not Active | Not Active | Not Active | Not Active | Not Active | Not Active | Not Active |  |  |  |
| CN1CCN(C(c2ccccc2)c2ccccc2)CC1 [CYCLIZINE] | Not Active | Not Active | Not Active | Not Active | Not Active | Not Active | Not Active | Not Active |  |  |  |
| CN1C[C@@H]2C[C@H]1CN2c1cc2c(cc1F)c(=O)c(C(=O)O)cn2C1CC1 [DANOFLOXACIN] | Not Active | Not Active | Not Active | Not Active | Not Active | Not Active | Not Active | Not Active |  |  |  |
| COc1cccc2c1C(=O)c1c(O)c3c(c(O)c1C2=O)C[C@@](O)(C(C)=O)C[C@@H]3O[C@H]1C[C@H](N)[C@H](O)[C@H](C)O1 [DAUNORUBICIN] | Not Active | Not Active | Not Active | Not Active | Not Active | Not Active | Not Active | Not Active |  |  |  |
| O=C(O)c1cc(-c2ccc(F)cc2F)ccc1O [DIFLUNISAL] | Not Active | Not Active | Not Active | Not Active | Not Active | Not Active | Not Active | Not Active |  |  |  |
| C[S+](C)[O-] [DIMETHYL SULFOXIDE] | Not Active | Not Active | Not Active | Not Active | Not Active | Not Active | Not Active | Not Active |  |  |  |
| CC1=NN(c2ccccc2)C(=O)C1 [EDARAVONE] | Not Active | Not Active | Not Active | Not Active | Not Active | Not Active | Not Active | Not Active |  |  |  |
| CC(C)C[C@H]1C(=O)N2CCC[C@H]2[C@]2(O)O[C@](NC(=O)[C@@H]3C=C4c5cccc6[nH]cc(c56)C[C@H]4N(C)C3)(C(C)C)C(=O)N12 [ERGOCRYPTINE] | Not Active | Not Active |  | Not Active | Not Active | Not Active | Not Active | Not Active | 6.01 | 5.61 |  |
| C[C@]12CC[C@@H]3c4ccc(O)cc4CC[C@H]3[C@@H]1C[C@@H](O)[C@@H]2O [ESTRIOL] | Not Active |  | Not Active | Not Active | Not Active | Not Active | Not Active | Not Active |  |  | 5.06 |
| CC(O)(P(=O)(O)O)P(=O)(O)O [ETIDRONIC ACID] | Not Active | Not Active | Not Active | Not Active | Not Active | Not Active | Not Active | Not Active |  |  |  |
| CN1CCN(c2c(F)cc3c(=O)c(C(=O)O)cn(CCF)c3c2F)CC1 [FLEROXACIN] | Not Active | Not Active | Not Active | Not Active | Not Active | Not Active | Not Active | Not Active |  |  |  |
| O=c1[nH]c(=O)n([C@H]2C[C@H](O)[C@@H](CO)O2)cc1F [FLOXURIDINE] | Not Active | Not Active | Not Active | Not Active | Not Active | Not Active | Not Active | Not Active |  |  |  |
| COC(=O)Nc1nc2cc(C(=O)c3ccc(F)cc3)ccc2[nH]1 [FLUBENDAZOLE] | Not Active | Not Active | Not Active | Not Active | Not Active | Not Active | Not Active | Not Active |  |  |  |
| CC(=O)OCC(=O)[C@@]1(O)CC[C@H]2[C@@H]3CCC4=CC(=O)CC[C@]4(C)[C@@]3(F)[C@@H](O)C[C@@]21C [FLUDROCORTISONE ACETATE] | Not Active | Not Active | Not Active | Not Active | Not Active | Not Active | Not Active | Not Active |  |  |  |
| CCOC(=O)c1ncn2c1CN(C)C(=O)c1cc(F)ccc1-2 [FLUMAZENIL] | Not Active | Not Active | Not Active | Not Active | Not Active | Not Active | Not Active | Not Active |  |  |  |

— ChEMBL document CHEMBL1909046, “DrugMatrix in vitro pharmacology data”
